Like-named read-outs stand apart in the source and are kept apart here.
Tests used:
[1] = system: CML patient's PBMC; test: Incubation of CML patient's PBMC (leukemic cells) with CA/PCQ, viable cell count; assay type: cell-based, human; conditions: Homo sapiens
Description: Whole blood (10 ml each) was drawn from previously diagnosed myeloid leukemic patients, one patient was diagnosed as AML and the other one was diagnosed as CML. Mononuclear cells were separated by Ficoll/hypaque density gradient centrifugation. […] Cells were then washed and counted for viability.

[2] = system: Erythroleukemic cell line (K562); test: Incubation of CD33- erythroleukemic cell line K562 with CA/PCQ, viable cell count; assay type: cell-based; conditions: for inhibition at 50 µg/mL: K562, 50.0 μg/ml; for inhibition at 100 µg/mL: K562, 100.0 μg/ml
Text: This cell line was collected from American Type Culture Collection (ATCC), VA, USA. This cell line is […]. […] Cells were then washed and counted for viability.

[3] = system: leukemic cells; test: Biological activity (destruction of leukemic cells) of Piper betel fractions and HPLC peaks; assay type: cell-based; conditions: fractions, zones and HPLC peaks of Piper betel leaf extract
Description: Collected material was examined for biological activity i.e. destruction of leukemic cells. […] 10 gm of above-mentioned material was loaded on Sephadex LH-20 column and chromatographed with water, water-methanol (1:1) and methanol as eluent. Three different fractions thus obtained from three different solvent systems were separately checked for biological activity. […] The column was equilibrated with methanol-water-acetic acid (23:76:1), flow rate was maintained at 1.0 ml per min and peaks were identified at 280 nm. According to the retention time (RE) different peaks could be divided into three zones, ZA/ZB and ZC (FIG. 1). ZA had 4 major peaks whereas ZB had very small to moderate 10 peaks and ZC had two distinct peaks. It was convenient to observe biological activity of three zones AA, ZB and ZC, which were separately tested on leukemia cells for destructive activity.

[4] = system: AML patient's PBMC; test: Incubation of AML patient's PBMC with CA, viable cell count; assay type: cell-based, human
Description: Whole blood (10 ml each) was drawn from previously diagnosed myeloid leukemic patients, one patient was diagnosed as AML and the other one was diagnosed as CML. Mononuclear cells were separated by Ficoll/hypaque density gradient centrifugation. PBMC (1×10^5-2×10^6/ml) of myeloid leukemia patients were incubated with varied concentrations of CA for 48 hours at 37° C. in 5% CO2. Cells were then washed and counted for viability.

[5] = Homo sapiens, 24 h, 1 day, 1 × 10^5 cells per ml per well, read-out: Percentage inhibition of Cell Growth
[6] = Homo sapiens, 48 h, 2 days, 1 × 10^5 cells per ml per well, read-out: Percentage inhibition of Cell Growth
[7] = Homo sapiens, 72 h, 3 days, 1 × 10^5 cells per ml per well, read-out: Percentage inhibition of Cell Growth

O=C(/C=C/c1ccc(O)c(O)c1)O[C@@H]1C[C@](O)(C(=O)O)C[C@@H](O)[C@H]1O (single isomer, unassigned) [CA, chlorogenic acid or 3-Caffeoyl quinic acid]
inhibition at 50 µg/mL ([1]; 48 h, CML patient's PBMC, 50.0 μg/ml, 2 days, 1 × 10^5 cells per ml per well, read-out: Percentage inhibition of Cell Growth): 22.2% | inhibition at 100 µg/mL ([1]; 48 h, CML patient's PBMC, 100.0 μg/ml, 2 days, 1 × 10^5 cells per ml per well, read-out: Percentage inhibition of Cell Growth): 45% | inhibition at 50 µg/mL ([1]; 72 h, CML patient's PBMC, 50.0 μg/ml, 3 days, 1 × 10^5 cells per ml per well, read-out: Percentage inhibition of Cell Growth): 30% | inhibition at 100 µg/mL ([1]; 72 h, CML patient's PBMC, 100.0 μg/ml, 3 days, 1 × 10^5 cells per ml per well, read-out: Percentage inhibition of Cell Growth): 55.6% | inhibition at 25 µg/mL ([1]; PBMC, 72 h, CML patient's leukemic cells, 25.0 μg/ml, 3 days, 2×10^5 cells per ml per well, read-out: % Inhibition of cell growth (After 3 days of incubation)): 2.38% | inhibition at 50 µg/mL ([1]; PBMC, 72 h, CML patient's leukemic cells, 50.0 μg/ml, 3 days, 2×10^5 cells per ml per well, read-out: % Inhibition of cell growth (After 3 days of incubation)): 4.67% | inhibition at 20 µg/mL ([1]; CML patient's PBMC, 20 μg/ml, 48 hr, 1 × 10^5 cells/ml/well, read-out: Percent inhibition of cell growth after 48 hr of incubation): 5.8% | inhibition at 50 µg/mL ([1]; CML patient's PBMC, 50 μg/ml, 48 hr, 1 × 10^5 cells/ml/well, read-out: Percent inhibition of cell growth after 48 hr of incubation): 10.3% | inhibition at 100 µg/mL ([1]; CML patient's PBMC, 100 μg/ml, 48 hr, 1 × 10^5 cells/ml/well, read-out: Percent inhibition of cell growth after 48 hr of incubation): 22.5% | inhibition at 500 µg/mL ([1]; CML patient's PBMC, 500 μg/ml, 48 hr, 1 × 10^5 cells/ml/well, read-out: Percent inhibition of cell growth after 48 hr of incubation): 32.3% | inhibition at 10 µg/mL ([2]; Homo sapiens, 24 h, K562, 10.0 μg/ml, 1 day, 1 × 10^5 cells per ml per well, read-out: Percentage inhibition of Cell Growth): 8% | inhibition at 25 µg/mL ([2]; Homo sapiens, 24 h, K562, 25.0 μg/ml, 1 day, 1 × 10^5 cells per ml per well, read-out: Percentage inhibition of Cell Growth): 20% | inhibition at 50 µg/mL [2, 5]: 28% | inhibition at 100 µg/mL [2, 5]: 84% | inhibition at 10 µg/mL ([2]; Homo sapiens, 48 h, K562, 10.0 μg/ml, 2 days, 1 × 10^5 cells per ml per well, read-out: Percentage inhibition of Cell Growth): 48.1% | inhibition at 25 µg/mL ([2]; Homo sapiens, 48 h, K562, 25.0 μg/ml, 2 days, 1 × 10^5 cells per ml per well, read-out: Percentage inhibition of Cell Growth): 63% | inhibition at 50 µg/mL [2, 6]: 77.8% | inhibition at 100 µg/mL [2, 6]: 98.1% | inhibition at 10 µg/mL ([2]; Homo sapiens, 72 h, K562, 10.0 μg/ml, 3 days, 1 × 10^5 cells per ml per well, read-out: Percentage inhibition of Cell Growth): 85.2% | inhibition at 25 µg/mL ([2]; Homo sapiens, 72 h, K562, 25.0 μg/ml, 3 days, 1 × 10^5 cells per ml per well, read-out: Percentage inhibition of Cell Growth): 92.6% | inhibition at 25 µg/mL ([2]; Homo sapiens, 72 h, K562, 25.0 μg/ml, 3 days, 2×10^5 cells per ml per well, read-out: % Inhibition of cell growth (After 3 days of incubation)): 20% | inhibition at 50 µg/mL [2, 7]: 100% | inhibition at 50 µg/mL ([2]; Homo sapiens, 72 h, 3 days, 2×10^5 cells per ml per well, read-out: % Inhibition of cell growth (After 3 days of incubation)): 28% | inhibition at 100 µg/mL [2, 7]: 100% | inhibition at 10 µg/mL ([2]; Homo sapiens, K562, 10 μg/ml, 48 hr, 1 × 10^5 cells/ml/well, read-out: Percent inhibition of cell growth after 48 hr of incubation): 46.6% | inhibition at 15 µg/mL ([2]; Homo sapiens, K562, 15 μg/ml, 48 hr, 1 × 10^5 cells/ml/well, read-out: Percent inhibition of cell growth after 48 hr of incubation): 93.3% | inhibition at 20 µg/mL ([2]; Homo sapiens, K562, 20 μg/ml, 48 hr, 1 × 10^5 cells/ml/well, read-out: Percent inhibition of cell growth after 48 hr of incubation): 100% | inhibition at 25 µg/mL ([2]; Homo sapiens, K562, 2×10^6/ml/well, 25 μg/ml, read-out: growth inhibition of leukemic cell lines): ≤ 20% | destruction of cells (in words) ([2]; K562): destroyed | biological activity i.e. destruction of leukemic cells (in words) [3]: Except peak no 6 (Rt 9.16 min) no other peaks had shown detectable activity | inhibition at 20 µg/mL ([4]; Homo sapiens, AML patient's PBMC, 20 μg/ml, 48 hr, 1 × 10^5 cells/ml/well, read-out: Percent inhibition of cell growth after 48 hr of incubation): 9.5% | inhibition at 50 µg/mL ([4]; Homo sapiens, AML patient's PBMC, 50 μg/ml, 48 hr, 1 × 10^5 cells/ml/well, read-out: Percent inhibition of cell growth after 48 hr of incubation): 16.6% | inhibition at 100 µg/mL ([4]; Homo sapiens, AML patient's PBMC, 100 μg/ml, 48 hr, 1 × 10^5 cells/ml/well, read-out: Percent inhibition of cell growth after 48 hr of incubation): 73.8% | inhibition at 500 µg/mL ([4]; Homo sapiens, AML patient's PBMC, 500 μg/ml, 48 hr, 1 × 10^5 cells/ml/well, read-out: Percent inhibition of cell growth after 48 hr of incubation): 85.7% | destruction of cells (in words) ([4]; PBMC of myeloid leukemia patients (AML)): destroyed

Source: US20030229140A1, “Herbal molecule as potential anti-leukemic drug” (priority 2002, published 2003)
